Assay: xn = mol fraction of the nth substance listed
Details: for viscosity: 101 kPa, x2 = 0; for electrical conductivity: 100 kPa

c1ccsc1 + N#C[C-](C#N)C#N.OCCC[n+]1ccccc1
Details | viscosity [mPa·s]
293.15 K | 0.653
298.15 K | 0.615
303.15 K | 0.58
308.15 K | 0.545
313.15 K | 0.518
318.15 K | 0.491
323.15 K | 0.464
328.15 K | 0.441
333.15 K | 0.42
338.15 K | 0.4
343.15 K | 0.382
348.15 K | 0.364

c1ccsc1 + N#C[C-](C#N)C#N.OCC[n+]1ccccc1
Details | viscosity [mPa·s]
303.15 K | 0.58
333.15 K | 0.42
348.15 K | 0.364

CCCCCCCC[n+]1ccccc1.[Br-] + NCC(=O)NCC(=O)O + O
electrical conductivity [S/m]
Details | 288.15 K | 293.15 K | 298.15 K | 303.15 K | 308.15 K
x2 = 0.0008948, x1 = 0.00597 | – | – | – | – | 2.18
x2 = 0.0008948, x1 = 0.005972 | – | – | 1.72 | 1.92 | –
x2 = 0.0008948, x1 = 0.005974 | 1.34 | 1.52 | – | – | –
x2 = 0.000895, x1 = 0.005737 | – | – | – | – | 2.13
x2 = 0.000895, x1 = 0.005739 | – | 1.48 | 1.68 | 1.88 | –
x2 = 0.000895, x1 = 0.005741 | 1.31 | – | – | – | –
x2 = 0.0008953, x1 = 0.005443 | – | – | 1.62 | 1.82 | 2.05
x2 = 0.0008953, x1 = 0.005445 | 1.27 | 1.44 | – | – | –
x2 = 0.0008956, x1 = 0.005122 | – | – | 1.57 | 1.76 | 1.98
x2 = 0.0008956, x1 = 0.005124 | 1.22 | 1.39 | – | – | –
x2 = 0.0008959, x1 = 0.004789 | – | 1.34 | 1.51 | 1.69 | 1.88
x2 = 0.0008959, x1 = 0.00479 | 1.18 | – | – | – | –
x2 = 0.0008962, x1 = 0.004442 | 1.14 | 1.29 | 1.45 | 1.62 | 1.79
x2 = 0.0008965, x1 = 0.004038 | – | – | – | – | 1.69
x2 = 0.0008965, x1 = 0.004039 | 1.07 | 1.21 | 1.36 | 1.52 | –
x2 = 0.000897, x1 = 0.00359 | – | – | 1.26 | 1.4 | 1.55
x2 = 0.000897, x1 = 0.003592 | 0.984 | 1.12 | – | – | –
x2 = 0.0008974, x1 = 0.003106 | 0.886 | 1 | 1.13 | 1.26 | 1.39
x2 = 0.0008979, x1 = 0.002563 | 0.768 | 0.87 | 0.975 | 1.09 | 1.19
x2 = 0.0008984, x1 = 0.002015 | 0.637 | 0.721 | 0.807 | 0.898 | 0.973
x2 = 0.0008987, x1 = 0.001634 | 0.54 | 0.61 | 0.682 | 0.758 | 0.823
x2 = 0.0008991, x1 = 0.001218 | 0.424 | 0.477 | 0.533 | 0.592 | 0.657
x2 = 0.0008995, x1 = 0.0007371 | 0.298 | 0.332 | 0.369 | 0.406 | 0.467
x2 = 0.001787, x1 = 0.006313 | – | – | – | – | 2.23
x2 = 0.001787, x1 = 0.006315 | – | – | 1.76 | 1.95 | –
x2 = 0.001787, x1 = 0.006317 | 1.36 | 1.53 | – | – | –
x2 = 0.001788, x1 = 0.005888 | – | – | 1.69 | 1.87 | 2.13
x2 = 0.001788, x1 = 0.00589 | 1.31 | 1.47 | – | – | –
x2 = 0.001789, x1 = 0.005263 | – | – | – | 1.76 | 1.98
x2 = 0.001789, x1 = 0.005265 | 1.23 | 1.38 | 1.57 | – | –
x2 = 0.001789, x1 = 0.005589 | – | – | 1.63 | 1.81 | 2.05
x2 = 0.001789, x1 = 0.005591 | 1.27 | 1.43 | – | – | –
x2 = 0.00179, x1 = 0.004922 | – | – | 1.51 | 1.69 | 1.88
x2 = 0.00179, x1 = 0.004924 | 1.18 | 1.33 | – | – | –
x2 = 0.001791, x1 = 0.004115 | – | 1.2 | 1.35 | 1.51 | 1.68
x2 = 0.001791, x1 = 0.004116 | 1.06 | – | – | – | –
x2 = 0.001791, x1 = 0.004536 | – | – | – | – | 1.78
x2 = 0.001791, x1 = 0.004537 | 1.13 | 1.27 | 1.44 | 1.61 | –
x2 = 0.001792, x1 = 0.003673 | – | – | – | 1.4 | 1.54
x2 = 0.001792, x1 = 0.003675 | 0.984 | 1.12 | 1.26 | – | –
x2 = 0.001793, x1 = 0.003161 | 0.886 | 0.997 | 1.12 | 1.25 | 1.38
x2 = 0.001794, x1 = 0.002599 | 0.766 | 0.862 | 0.967 | 1.08 | 1.18
x2 = 0.001795, x1 = 0.001992 | 0.62 | 0.699 | 0.783 | 0.87 | 0.87
x2 = 0.001796, x1 = 0.001587 | 0.515 | 0.581 | 0.65 | 0.724 | 0.724
x2 = 0.001797, x1 = 0.0007376 | 0.292 | 0.326 | 0.36 | 0.389 | 0.389
x2 = 0.001797, x1 = 0.001185 | 0.405 | 0.456 | 0.51 | 0.566 | 0.566
